From publication PMC12051620, “Molecular basis underlying the specificity of an antagonist AA92593 for mammalian melanopsins” (The Journal of Biological Chemistry, 2025)

How the values were obtained:
Assay in all cases: GsX GloSensor assay with Gsα/q11
Type in all cases: cell-based
[1] = biological target: T1, human melanopsin L207^5.42F mutant (Homo sapiens, UniProt Q9UHM6, L239F)
T1 construct: the C-terminal amino acid residues (94, 140, 200, 214, 296, and 308 residues); expressed in transfected cells; host or cells: COS-1
T1 sequence (Q9UHM6 1-384 L239F limits assumed): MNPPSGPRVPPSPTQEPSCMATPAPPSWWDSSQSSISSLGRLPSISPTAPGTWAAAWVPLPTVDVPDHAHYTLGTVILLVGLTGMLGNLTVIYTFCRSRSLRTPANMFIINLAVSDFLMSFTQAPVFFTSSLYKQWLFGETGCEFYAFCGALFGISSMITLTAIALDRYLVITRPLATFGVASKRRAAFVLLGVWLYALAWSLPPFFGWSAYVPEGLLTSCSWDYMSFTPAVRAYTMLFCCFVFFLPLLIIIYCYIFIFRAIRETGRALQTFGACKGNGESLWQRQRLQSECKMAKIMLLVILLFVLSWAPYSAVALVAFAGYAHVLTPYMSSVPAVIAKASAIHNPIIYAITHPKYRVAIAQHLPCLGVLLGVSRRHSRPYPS
Procedure: (§1) Based on the docking and MD simulations of human melanopsin with AA92593, importance of the interactions of Trp-189^ECL2 and Leu-207^5.42 with the antagonist was experimentally examined using the GsX GloSensor assay. To validate the interaction between Trp-189^ECL2 and AA92593, substitutions of W189^ECL2F, W189^ECL2I, or W189^ECL2V in human melanopsin were tested. […] To assess the importance of Leu-207^5.42 in the interaction with AA92593, substitutions L207^5.42V, L207^5.42A, or L207^5.42F in human melanopsin were tested. […] Of note, the L207^5.42F substitution enhanced the sensitivity (∼8%) of human melanopsin to AA92593 (Fig. 5F), although the difference was not statistically significant (Fig. 5H). Dose-dependent curve of reduction in the GsX GloSensor signals of the L207^5.42F was shifted by ∼0.6 μM from the curve of WT (Fig. 5I). The introduction of a Phe residue at position 207^5.42 caused additional interactions between the phenyl ring in Phe-207^5.42 and some functional groups in AA92593. The marked changes in the antagonistic effects of Trp-189^ECL2 and Leu-207^5.42 substitutions are consistent with our molecular simulations, showing that these residues are located at the antagonist-binding site (Fig. 4B).
(§2) For GloSensor assay, opsins, GloSensor assay sensor (coded by pGlo-22F), and NanoBiT-tagged G proteins were transiently expressed in COS-1 cells (kindly provided from Dr David Farrens, Oregon Health and Science University) using PEI as described previously ([24], [52]). For the GsX GloSensor assay ([12], [13]), each well of a 96-well assay plate (Corning) was transfected with 50 ng opsin plasmid, 16.7 ng G protein plasmid, 50 ng pGlo-22F plasmid (Promega), and 500 ng PEI in 25 μl Opti-mem and 75 μl Dulbecco's modified Eagle's medium (D-MEM). For NanoBiT G protein dissociation assay, each well of a 96-well assay plate was transfected with 50 ng opsin plasmid, 5 ng Lg-BiT inserted Gqα (Gqα-LgBiT) plasmid, 25 ng Gβ1 plasmid, 25 ng Sm-BiT fused Gγ2 plasmid, 5 ng RIC8A plasmid, and 500 ng PEI in 25 μl Opti-mem and 75 μl D-MEM. For GFP-fluorescence microscopy, a 35-mm cell culture dish (IWAKI) was transfected with 2 μg melanopsin-GFP plasmid and 8 μg PEI in 400 μl Opti-mem and 1.2 ml D-MEM. For melanopsin purification, ten of 100-mm cell culture dishes (NEST) were transfected with 150 μg melanopsin plasmid and 500 μg PEI in 25 ml Opti mem and 75 ml D-MEM.
(§3) The transfected COS-1 cells were incubated at 37 °C, 5% CO2 for 2 days, and the medium was aspirated and exchanged with 50 μl of HBSS (145 mM NaCl, 10 mM D-glucose, 5 mM KCl, 1 mM MgCl2, 1.7 mM CaCl2, 1.5 mM NaHCO3, 10 mM Hepes, pH 7.4), containing 33.3, 20, 10, 2, 0.2, 0.02, 0.002, or 0 μM AA92593, 0.5% dimetyl sulfoxide (DMSO), and 4% (vol/vol) GloSensor cAMP reagent stock solution. Under our experimental conditions, >50 μM AA92593 was not fully dissolved in the HBSS solution, and we set maximal concentration of AA92593 (Glixx Laboratories) at 33.3 μM (final concentration of 16.7 μM, see below). Then, the cells were incubated at room temperature for 1 h, and luminescence changes were monitored. After incubation of the cells with AA92593, luminescence measurement was interrupted, the plate was ejected, and the cells were added with 50 μl of HBSS containing 0.2 μM 9-cis-retinal. The final exogenous AA92593 concentrations were 16.7, 10, 5, 1, 0.1, 0.01, 0.001, or 0 μM, and retinal concentration was 0.1 μM. Twenty millimolars of stock solution of AA92593 was prepared in DMSO, and final concentration of DMSO was kept at 0.25% regardless final AA92593 concentration. Then, the cells were incubated at room temperature for 1 h. Luminescence was measured using GM-2000 or GM-3510 microplate reader (Promega). Luminescence level of each well was measured every 30 s with integration time of 0.6 to 0.9 s. […]

[2] = biological target: T2, human melanopsin W189^ECL2I mutant (Homo sapiens, UniProt Q9UHM6, W223I); settings: 16.7 μM AA92593, COS-1 cells
T2 construct: expressed in transfected cells; host or cells: COS-1
T2 sequence (Q9UHM6 1-384 W223I limits assumed): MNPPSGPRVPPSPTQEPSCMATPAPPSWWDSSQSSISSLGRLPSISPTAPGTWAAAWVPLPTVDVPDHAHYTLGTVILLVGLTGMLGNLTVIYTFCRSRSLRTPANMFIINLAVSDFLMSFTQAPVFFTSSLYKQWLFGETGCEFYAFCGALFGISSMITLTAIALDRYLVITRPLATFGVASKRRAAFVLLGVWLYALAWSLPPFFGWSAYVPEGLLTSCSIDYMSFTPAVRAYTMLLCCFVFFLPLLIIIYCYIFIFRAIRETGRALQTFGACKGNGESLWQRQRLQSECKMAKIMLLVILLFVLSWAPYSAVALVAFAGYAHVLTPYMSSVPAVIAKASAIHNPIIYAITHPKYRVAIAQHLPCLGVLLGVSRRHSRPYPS
Procedure: as §1, §2, §3

[3] = biological target: T3, human melanopsin W189^ECL2V mutant (Homo sapiens, UniProt Q9UHM6, W223V); settings: 16.7 μM AA92593, COS-1 cells
T3 construct: expressed in transfected cells; host or cells: COS-1
T3 sequence (Q9UHM6 1-384 W223V limits assumed): as the sequence (Q9UHM6 1-384 W223I limits assumed) above, with I223V counted along it
Procedure: as §1, §2, §3

[4] = test system: human melanopsin L207^5.42V mutant; settings: 16.7 μM AA92593, COS-1 cells
Procedure: as §1, §2, §3

[5] = test system: human melanopsin L207^5.42A mutant; settings: 16.7 μM AA92593, COS-1 cells
Procedure: as §1, §2, §3

[6] = test system: human melanopsin W189^ECL2F mutant; settings: 16.7 μM AA92593, COS-1 cells
Procedure: as §1, §2, §3

[7] = relative peak cAMP response vs no AA92593

`COc1ccc(S(=O)(=O)N2CCCCC2)cc1C` [AA92593] was tested, and the “Hill fitting parameter rate of dose-response curve” value [1] was −0.88 ± 0.29, the “enhanced sensitivity to AA92593 vs WT” value ([1]; 16.7 μM AA92593, COS-1 cells, Gsα/q11, difference not statistically significant) was roughly 8% and the IC50 ([1]; COS-1 cells, n = 3, read-out: IC50, reduction in peak cAMP responses upon Gsα/q11 activation) was 350 ± 160 nM. The “Hill fitting parameter max of dose-response curve” value [1, 7] was 98.88 ± 4.88, the “Hill fitting parameter min of dose-response curve” value [1, 7] was 3.15 ± 9.9 and the “inhibitory effect of AA92593 compared to WT” value [2] was “significantly weaker”. For the same molecule, the “inhibitory effect of AA92593 compared to WT” value [3] was “significantly weaker”, the “reduced antagonistic effect of AA92593 vs WT” value [4] was roughly 15% and the “reduced antagonistic effect of AA92593 vs WT” value [5] was roughly 12%. The “decrease in sensitivity to AA92593 vs WT” value [6] was roughly 60%.
